# Source: ChEMBL document CHEMBL5252584, “Design, synthesis and anti-Chikungunya virus activity of lomerizine derivatives” (Bioorg Med Chem Lett, 2023)
# Tests used:
# Chikungunya virus [1] = assay: Antiviral activity against CHIKV infected in human Huh-7 cells assessed as inhibition of viral growth at 2.5 uM incubated for 12 hrs relative to control; assay type: functional
# Chikungunya virus [2] = assay: Antiviral activity against CHIKV infected in human Huh-7 cells assessed as inhibition of viral growth at 5 uM incubated for 12 hrs relative to control; assay type: functional
# Chikungunya virus [3] = assay: Antiviral activity against CHIKV infected in human Huh-7 cells assessed as inhibition of viral growth at 10 uM incubated for 12 hrs relative to control; assay type: functional; design: scale not given: the % may be the effect or the level left
# Huh-7 = assay: Cytotoxicity against human Huh-7 cells assessed as reduction in cell viability at 5 uM by CCK8 assay relative to control; assay type: toxicity, cell-based; conditions: huh-7, 5 µM
# Chikungunya virus [4] = assay: Antiviral activity against CHIKV infected in human Huh-7 cells assessed as inhibition of viral growth incubated for 12 hrs; assay type: functional, organism-based; conditions: Huh-7, 12 h
# [5] = Selectivity index, ratio of CC50 for cytotoxicity against human Huh-7 cells to IC50 for antiviral activity against CHIKV infected in human Huh-7 cells; assay type: toxicity, cell-based; conditions: read-out: Ratio CC50/IC50
# [6] = Cytotoxicity against human Huh-7 cells assessed as reduction in cell viability by CCK8 assay relative to control; assay type: toxicity, cell-based
SMILES,inhibition at 2.5 µM (Chikungunya virus [1]) [%],inhibition at 5 µM (Chikungunya virus [2]) [%],Activity (Chikungunya virus [3]) [%],cell viability (Huh-7) [%],IC50 (Chikungunya virus [4]) [µM],selectivity ratio [5],CC50 [6] [µM]
O=C(/C=C/c1ccc(O)c(O)c1)N1CCN(C(c2ccccc2)c2ccc(Cl)cc2)CC1 (stereo not given),20.2,34.7,74.4,> 80,,,
O=C(/C=C/c1ccc(O)c(O)c1)N1CCN(C(c2ccc(F)cc2)c2ccc(F)cc2)CC1,20.1,43.9,96.3,> 80,,,
O=C(/C=C/c1ccccc1F)N1CCN(C(c2ccc(F)cc2)c2ccc(F)cc2)CC1,74.2,92.8,95.8,> 80,0.61,51.9,31.7
O=C(/C=C/c1ccc(F)cc1)N1CCN(C(c2ccc(F)cc2)c2ccc(F)cc2)CC1,9.7,19.6,55.2,> 80,,,
O=C(/C=C/c1ccccc1F)N1CCN(C(c2ccccc2)c2ccccc2)CC1,17.9,62.1,77.6,> 80,4.5,7.6,34.2
O=C(/C=C/c1cccc(F)c1)N1CCN(C(c2ccc(F)cc2)c2ccc(F)cc2)CC1,59.6,78.9,85.8,> 80,2.06,11.1,22.9
Cc1ccc(/C=C/C(=O)N2CCN(C(c3ccccc3)c3ccc(Cl)cc3)CC2)cc1 (stereo not given),13.4,29.7,56.3,> 80,,,
Cc1ccc(/C=C/C(=O)N2CCN(C(c3ccc(F)cc3)c3ccc(F)cc3)CC2)cc1,21.3,32.8,84.3,> 80,,,
O=C(/C=C/c1ccc2c(c1)OCO2)N1CCN(C(c2ccccc2)c2ccc(Cl)cc2)CC1 (stereo not given),13.2,52.3,86.5,> 80,4.83,6.5,31.4
O=C(/C=C/c1ccc2c(c1)OCO2)N1CCN(C(c2ccc(F)cc2)c2ccc(F)cc2)CC1,86.9,93.1,97.4,> 80,0.45,66,29.7
O=C(/C=C/c1cccnc1)N1CCN(C(c2ccc(F)cc2)c2ccc(F)cc2)CC1,53.8,54.4,76.5,> 80,1.61,13,20.9
O=C(/C=C/c1ccncc1)N1CCN(C(c2ccc(F)cc2)c2ccc(F)cc2)CC1,58.1,90.7,95.3,> 80,2.35,13.3,31.3
O=c1cc(-c2ccccc2)oc2cc(O)c(O)c(O)c12 [BAICALEIN],,,,,16.9,> 6,> 100
COc1ccc(CN2CCN(C(c3ccc(F)cc3)c3ccc(F)cc3)CC2)c(OC)c1OC [LOMERIZINE],,,,,4.02,> 24.9,> 100
